pIC50, pKi: −log10 of the molar value.
Columns and labels:
[1] = Ratio of unbound drug level in brain to plasma in Sprague-Dawley rat; format: ADME, organism-based
Homo sapiens = species: Homo sapiens; assay: Selectivity ratio of Ki for JAK2 (unknown origin) to Ki for LRRK2 (unknown origin)
[2] = target: T1, Leucine-rich repeat serine/threonine-protein kinase 2 (Homo sapiens, UniProt Q5S007); assay: Inhibition of LRRK2 (unknown origin)
[3] = Clearance in rat hepatocytes at 1 uM by LC-MS/MS analysis; format: ADME, cell-based, Hepatocyte
Rattus norvegicus = assay: Unbound clearance in Sprague-Dawley rat at 1 mg/kg, po and 0.5 mg/kg, iv; format: ADME, organism-based; conditions: in vivo
MDR1 (P-gp, ABCB1) = MDR1 (P-gp, ABCB1) (Homo sapiens, UniProt P08183); assay: Activity at human MDR1 transfected in MDCK cells assessed as efflux ratio of apparent permeability from basolateral to apical side over apical to basolateral side at 5 uM; format: ADME, cell-based
Chain of MDR1 (P-gp, ABCB1) (P08183 whole entry): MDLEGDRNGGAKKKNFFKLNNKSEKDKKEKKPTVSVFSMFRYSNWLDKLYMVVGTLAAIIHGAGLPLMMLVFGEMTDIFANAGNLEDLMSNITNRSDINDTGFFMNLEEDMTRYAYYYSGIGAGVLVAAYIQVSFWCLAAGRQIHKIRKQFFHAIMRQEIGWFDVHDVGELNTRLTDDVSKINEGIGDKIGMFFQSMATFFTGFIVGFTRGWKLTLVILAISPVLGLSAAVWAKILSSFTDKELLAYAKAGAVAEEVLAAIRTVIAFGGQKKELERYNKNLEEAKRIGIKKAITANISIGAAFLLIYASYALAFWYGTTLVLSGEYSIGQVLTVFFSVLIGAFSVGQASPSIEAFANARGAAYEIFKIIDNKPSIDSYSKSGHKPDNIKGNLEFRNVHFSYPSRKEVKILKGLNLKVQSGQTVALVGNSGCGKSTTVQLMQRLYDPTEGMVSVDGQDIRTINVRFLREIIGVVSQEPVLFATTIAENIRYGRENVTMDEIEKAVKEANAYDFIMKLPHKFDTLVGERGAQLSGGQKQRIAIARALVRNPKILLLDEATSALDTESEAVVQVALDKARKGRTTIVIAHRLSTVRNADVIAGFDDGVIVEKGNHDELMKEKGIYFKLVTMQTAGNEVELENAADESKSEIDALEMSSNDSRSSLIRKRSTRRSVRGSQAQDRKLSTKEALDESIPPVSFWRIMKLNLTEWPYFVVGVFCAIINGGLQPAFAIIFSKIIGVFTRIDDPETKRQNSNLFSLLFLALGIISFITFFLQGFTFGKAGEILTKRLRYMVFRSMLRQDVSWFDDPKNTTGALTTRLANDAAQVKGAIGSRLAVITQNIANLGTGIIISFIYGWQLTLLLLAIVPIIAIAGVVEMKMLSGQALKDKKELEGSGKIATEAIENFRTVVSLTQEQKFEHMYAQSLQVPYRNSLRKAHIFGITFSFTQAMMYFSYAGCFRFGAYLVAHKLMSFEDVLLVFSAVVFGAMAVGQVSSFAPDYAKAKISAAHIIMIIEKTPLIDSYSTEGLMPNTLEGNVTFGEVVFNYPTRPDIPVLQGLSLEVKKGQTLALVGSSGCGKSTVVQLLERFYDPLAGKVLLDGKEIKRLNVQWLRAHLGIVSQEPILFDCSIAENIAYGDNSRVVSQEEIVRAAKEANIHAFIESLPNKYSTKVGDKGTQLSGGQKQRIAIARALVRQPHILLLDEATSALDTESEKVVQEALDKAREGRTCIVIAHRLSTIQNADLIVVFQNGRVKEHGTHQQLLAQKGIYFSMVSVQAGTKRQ

[4] = target: T1, Leucine-rich repeat serine/threonine-protein kinase 2; assay: Inhibition of LRRK2 (unknown origin) phosphorylation by cell-based assay
[5] = Clearance in human hepatocytes at 1 uM by LC-MS/MS analysis; format: ADME, cell-based, Hepatocyte
[6] = Clearance in Sprague-Dawley rat at 1 mg/kg, po and 0.5 mg/kg, iv; format: ADME, organism-based; conditions: in vivo
[7] = Volume of distribution in Sprague-Dawley rat at 0.5 mg/kg, iv; format: ADME, organism-based; set-up: dose 0.5 mg/kg, route intravenous; conditions: in vivo
[8] = Half life in Sprague-Dawley rat at 0.5 mg/kg, iv; format: ADME, organism-based; set-up: dose 0.5 mg/kg, route intravenous; conditions: in vivo
[9] = Reversible inhibition of CYP in human liver microsomes by mass spectrophotometric analysis; format: ADME
Cytochrome P450 1A2 [10] = target: T2, Cytochrome P450 1A2 (Homo sapiens, UniProt P05177); assay: Time dependent inhibition of CYP1A2 in human liver microsomes using phenacetin as substrate by HPLC-MS analysis; format: ADME
T2 sequence (P05177 whole entry): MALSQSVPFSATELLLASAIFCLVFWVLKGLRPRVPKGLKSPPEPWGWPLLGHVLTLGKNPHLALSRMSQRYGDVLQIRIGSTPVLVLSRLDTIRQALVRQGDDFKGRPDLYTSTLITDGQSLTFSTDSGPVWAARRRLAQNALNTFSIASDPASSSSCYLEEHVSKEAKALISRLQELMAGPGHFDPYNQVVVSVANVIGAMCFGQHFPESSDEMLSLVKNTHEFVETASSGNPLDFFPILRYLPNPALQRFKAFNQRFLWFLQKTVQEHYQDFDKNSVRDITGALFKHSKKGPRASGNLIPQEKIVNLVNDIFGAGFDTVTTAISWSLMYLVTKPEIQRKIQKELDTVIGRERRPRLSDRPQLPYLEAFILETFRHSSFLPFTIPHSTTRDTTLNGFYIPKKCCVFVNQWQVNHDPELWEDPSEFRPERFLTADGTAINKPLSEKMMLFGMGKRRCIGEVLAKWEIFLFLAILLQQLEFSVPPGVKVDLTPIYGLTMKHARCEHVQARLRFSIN

[11] = Half life in cynomolgus monkey at 0.5 mg/kg, iv; format: ADME, organism-based, Macaca fascicularis; set-up: dose 0.5 mg/kg, route intravenous; conditions: in vivo
[12] = Time dependent inhibition of CYP in human liver microsomes by HPLC-MS analysis; format: ADME
Liver microsome [13] = assay: Drug metabolism in human liver microsomes in presence of methoxyamine; format: ADME
Mus musculus = assay: In vivo inhibition of human LRRK2 G2019S Parkinson's disease mutant expressed in BAC mouse assessed as inhibition of autophosphorylation at Ser1292 in brain at 10 to 50 mg/kg, ip after 1 to 6 hrs; format: functional, organism-based; set-up: dose 10-50 mg/kg, route intraperitoneal
[14] = Oral bioavailability in Sprague-Dawley rat at 1 mg/kg; format: ADME, organism-based; conditions: in vivo
Liver microsome [15] = assay: Drug metabolism in human liver microsomes in presence of glutathione; format: ADME
Cytochrome P450 2B6 = target: T3, Cytochrome P450 2B6 (Homo sapiens, UniProt P20813); assay: Induction of CYP2B6 in human hepatocytes; format: ADME, cell-based, Hepatocyte
T3 sequence (P20813 whole entry): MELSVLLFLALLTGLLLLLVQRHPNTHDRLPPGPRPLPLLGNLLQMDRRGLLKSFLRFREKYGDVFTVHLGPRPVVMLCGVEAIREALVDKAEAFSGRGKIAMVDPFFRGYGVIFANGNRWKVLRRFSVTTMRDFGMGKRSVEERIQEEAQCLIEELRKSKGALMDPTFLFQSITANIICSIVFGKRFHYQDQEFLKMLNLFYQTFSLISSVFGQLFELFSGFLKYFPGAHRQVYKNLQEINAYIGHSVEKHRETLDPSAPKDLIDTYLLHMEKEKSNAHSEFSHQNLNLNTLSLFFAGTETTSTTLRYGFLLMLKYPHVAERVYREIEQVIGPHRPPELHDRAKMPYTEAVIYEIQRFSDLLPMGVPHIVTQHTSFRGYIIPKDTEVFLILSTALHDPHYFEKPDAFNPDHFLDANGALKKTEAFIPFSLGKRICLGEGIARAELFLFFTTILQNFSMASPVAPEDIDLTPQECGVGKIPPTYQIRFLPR

Cytochrome P450 3A4 = Cytochrome P450 3A4 (Homo sapiens, UniProt P08684); assay: Induction of CYP3A4 in human hepatocytes; format: ADME, cell-based, Hepatocyte
Chain of Cytochrome P450 3A4 (P08684 whole entry): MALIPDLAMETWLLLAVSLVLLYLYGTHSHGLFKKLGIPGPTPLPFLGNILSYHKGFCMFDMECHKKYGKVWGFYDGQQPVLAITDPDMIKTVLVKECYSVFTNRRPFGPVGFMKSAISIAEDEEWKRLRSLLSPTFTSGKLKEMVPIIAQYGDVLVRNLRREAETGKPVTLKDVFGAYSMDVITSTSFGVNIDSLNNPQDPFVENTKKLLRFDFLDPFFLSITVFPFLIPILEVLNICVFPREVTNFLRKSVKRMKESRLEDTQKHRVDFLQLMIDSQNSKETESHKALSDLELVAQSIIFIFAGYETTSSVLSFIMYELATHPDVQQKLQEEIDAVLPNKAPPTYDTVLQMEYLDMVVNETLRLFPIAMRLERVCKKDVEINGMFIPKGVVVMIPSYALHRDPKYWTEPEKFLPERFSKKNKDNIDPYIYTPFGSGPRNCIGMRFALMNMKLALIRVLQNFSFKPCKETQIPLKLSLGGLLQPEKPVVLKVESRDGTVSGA

[16] = Clearance in cynomolgus monkey at 1 mg/kg, po and 0.5 mg/kg, iv; format: ADME, organism-based, Macaca fascicularis; conditions: in vivo
[17] = Plasma protein binding in cynomolgus monkey at 5 uM after 4 hrs by equilibrium dialysis technique; format: ADME, cell-free, Macaca fascicularis; conditions: read-out: PPB (converted)
[18] = Oral bioavailability in cynomolgus monkey at 1 mg/kg; format: ADME, organism-based, Macaca fascicularis; conditions: in vivo
TAK1/TAB1 (Homo sapiens) = TAK1/TAB1 (Homo sapiens) (UniProt Q15750+O43318); assay: Inhibition of TAK1/TAB1 (unknown origin) at 0.1 uM relative to control; format: protein-complex assay
Cytochrome P450 1A2 [19] = target: T2, Cytochrome P450 1A2; assay: Induction of CYP1A2 in human hepatocytes; format: ADME, cell-based, Hepatocyte
Cynomolgus monkey = assay: Unbound clearance in cynomolgus monkey at 1 mg/kg, po and 0.5 mg/kg, iv; format: ADME, organism-based, Macaca fascicularis; conditions: in vivo
[20] = Thermodynamic solubility of the crystalline form of compound at pH 7.4; format: physicochemical; conditions: read-out: Therm_solubility

T1 sequence (Q5S007 whole entry): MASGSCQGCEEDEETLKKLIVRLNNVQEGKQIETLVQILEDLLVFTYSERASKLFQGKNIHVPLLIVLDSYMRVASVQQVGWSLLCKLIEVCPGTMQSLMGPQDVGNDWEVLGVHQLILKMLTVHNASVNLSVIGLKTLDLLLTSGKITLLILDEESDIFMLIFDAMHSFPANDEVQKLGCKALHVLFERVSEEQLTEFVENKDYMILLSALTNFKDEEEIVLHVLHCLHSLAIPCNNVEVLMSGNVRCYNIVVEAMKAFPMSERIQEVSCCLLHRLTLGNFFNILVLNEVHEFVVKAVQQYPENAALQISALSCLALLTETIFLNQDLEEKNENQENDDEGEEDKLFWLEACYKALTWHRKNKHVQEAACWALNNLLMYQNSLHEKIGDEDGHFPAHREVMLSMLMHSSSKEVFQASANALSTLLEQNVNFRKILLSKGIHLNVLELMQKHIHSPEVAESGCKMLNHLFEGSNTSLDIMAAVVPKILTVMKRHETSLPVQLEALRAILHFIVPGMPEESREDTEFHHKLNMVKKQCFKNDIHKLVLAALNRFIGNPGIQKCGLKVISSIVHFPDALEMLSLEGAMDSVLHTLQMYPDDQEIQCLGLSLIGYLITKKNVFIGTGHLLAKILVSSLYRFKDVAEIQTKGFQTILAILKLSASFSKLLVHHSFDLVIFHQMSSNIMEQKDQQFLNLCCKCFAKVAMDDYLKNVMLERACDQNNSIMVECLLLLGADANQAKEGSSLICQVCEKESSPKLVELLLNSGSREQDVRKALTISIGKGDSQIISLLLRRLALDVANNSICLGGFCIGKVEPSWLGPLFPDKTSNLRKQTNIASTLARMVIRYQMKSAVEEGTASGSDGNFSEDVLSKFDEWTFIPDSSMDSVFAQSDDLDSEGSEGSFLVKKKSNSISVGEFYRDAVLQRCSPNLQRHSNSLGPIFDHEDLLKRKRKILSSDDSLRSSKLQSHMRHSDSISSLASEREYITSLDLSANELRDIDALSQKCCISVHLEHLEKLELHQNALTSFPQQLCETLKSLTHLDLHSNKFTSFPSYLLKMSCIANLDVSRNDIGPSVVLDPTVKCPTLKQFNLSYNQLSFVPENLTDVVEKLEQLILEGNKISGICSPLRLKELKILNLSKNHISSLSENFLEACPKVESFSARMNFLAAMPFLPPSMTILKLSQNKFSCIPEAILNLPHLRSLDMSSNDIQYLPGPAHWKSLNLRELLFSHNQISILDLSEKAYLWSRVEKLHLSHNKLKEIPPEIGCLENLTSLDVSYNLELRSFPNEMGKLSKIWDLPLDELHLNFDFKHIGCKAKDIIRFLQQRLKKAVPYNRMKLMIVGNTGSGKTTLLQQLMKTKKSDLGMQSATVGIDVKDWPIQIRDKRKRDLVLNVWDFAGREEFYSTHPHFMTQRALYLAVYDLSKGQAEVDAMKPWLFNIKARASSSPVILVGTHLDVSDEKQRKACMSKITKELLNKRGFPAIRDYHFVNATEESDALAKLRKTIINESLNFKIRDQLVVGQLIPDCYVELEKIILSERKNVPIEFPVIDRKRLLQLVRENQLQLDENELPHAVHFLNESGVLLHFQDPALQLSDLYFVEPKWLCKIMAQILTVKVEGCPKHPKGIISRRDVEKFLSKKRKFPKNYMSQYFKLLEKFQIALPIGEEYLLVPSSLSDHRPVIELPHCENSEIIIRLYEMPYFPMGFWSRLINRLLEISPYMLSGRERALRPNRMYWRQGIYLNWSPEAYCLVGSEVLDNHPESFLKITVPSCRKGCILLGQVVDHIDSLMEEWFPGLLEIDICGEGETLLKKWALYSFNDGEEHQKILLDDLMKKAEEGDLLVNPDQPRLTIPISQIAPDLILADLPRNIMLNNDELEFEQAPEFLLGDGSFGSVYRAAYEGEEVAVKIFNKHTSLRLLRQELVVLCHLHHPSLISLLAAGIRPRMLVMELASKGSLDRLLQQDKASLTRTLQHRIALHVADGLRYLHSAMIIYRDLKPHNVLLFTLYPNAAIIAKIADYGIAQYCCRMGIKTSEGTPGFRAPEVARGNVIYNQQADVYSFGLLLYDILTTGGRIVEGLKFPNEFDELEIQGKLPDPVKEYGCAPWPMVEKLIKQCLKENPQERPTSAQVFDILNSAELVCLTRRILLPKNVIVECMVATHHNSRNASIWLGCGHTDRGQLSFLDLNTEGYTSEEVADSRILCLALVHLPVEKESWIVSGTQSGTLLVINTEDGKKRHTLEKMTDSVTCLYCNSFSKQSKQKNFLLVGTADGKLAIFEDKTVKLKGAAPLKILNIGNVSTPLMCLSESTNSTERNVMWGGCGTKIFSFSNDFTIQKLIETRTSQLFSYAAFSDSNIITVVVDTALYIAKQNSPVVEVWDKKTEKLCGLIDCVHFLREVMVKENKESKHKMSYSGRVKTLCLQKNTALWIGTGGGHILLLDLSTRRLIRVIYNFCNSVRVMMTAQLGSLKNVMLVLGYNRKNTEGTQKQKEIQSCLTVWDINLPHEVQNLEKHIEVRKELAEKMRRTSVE

SMILES: CNc1nc(Nc2cnn(C3CCOCC3)c2C)ncc1C(F)(F)F
- Kp uu [1]: 0.3
- Ratio Ki (Homo sapiens): > 150
- pKi [2]: 8.70
- CLhep predicted at 1 µM [3]: 35 mL/min/kg
- CL free (Rattus norvegicus): 232 mL/min/kg
- efflux ratio at 5 µM (MDR1 (P-gp, ABCB1)): 2.3
- pIC50 [4]: 7.96
- CLhep predicted at 1 µM [5]: 5 mL/min/kg
- clearance [6]: 74 mL/min/kg
- Vd [7]: 1.1 L/kg
- half-life [8]: 0.17 h

SMILES: CCNC(=O)C(C)(C)n1cc(Nc2ncc(C(F)(F)F)c(NC)n2)c(C)n1
- Ratio Ki (Homo sapiens): > 150
- efflux ratio at 5 µM (MDR1 (P-gp, ABCB1)): 4
- pIC50 [4]: 7.00

SMILES: CNc1nc(Nc2cnn3c2COC(C)(C)C3)ncc1C(F)(F)F
- Ratio Ki (Homo sapiens): > 150
- pKi [2]: 9.05
- efflux ratio at 5 µM (MDR1 (P-gp, ABCB1)): 0.7
- pIC50 [4]: 7.70
- CLhep predicted at 1 µM [5]: 12 mL/min/kg

SMILES: CNc1nc(Nc2cnn(C(C)(C)C#N)c2C)ncc1C(F)(F)F
- Kp uu [1]: 0.4
- Ratio Ki (Homo sapiens): > 150
- pKi [2]: 9.00
- CLhep predicted at 1 µM [3]: 33 mL/min/kg
- CL free (Rattus norvegicus): 423 mL/min/kg
- efflux ratio at 5 µM (MDR1 (P-gp, ABCB1)): 1
- pIC50 [4]: 8.30
- CLhep predicted at 1 µM [5]: 4 mL/min/kg
- clearance [6]: 65 mL/min/kg

SMILES: CNc1nc(Nc2cn(C3(C#N)CC3)nc2C)ncc1C(F)(F)F
- Kp uu [1]: 0.4
- Ratio Ki (Homo sapiens): > 150
- pKi [2]: 8.52
- CLhep predicted at 1 µM [3]: 14 mL/min/kg
- CL free (Rattus norvegicus): 213 mL/min/kg
- efflux ratio at 5 µM (MDR1 (P-gp, ABCB1)): 1.4
- pIC50 [4]: 7.52
- CLhep predicted at 1 µM [5]: 5 mL/min/kg
- clearance [6]: 55 mL/min/kg

SMILES: CNc1nc(Nc2cn(C(C)(C)C(=O)NC(C)C)nc2C)ncc1C(F)(F)F
- Ratio Ki (Homo sapiens): > 150
- efflux ratio at 5 µM (MDR1 (P-gp, ABCB1)): 1.3
- pIC50 [4]: 6.85

SMILES: CNc1nc(Nc2cnn(C3COC3)c2C)ncc1C(F)(F)F
- Kp uu [1]: 0.3
- Ratio Ki (Homo sapiens): > 150
- pKi [2]: 8.70
- CLhep predicted at 1 µM [3]: 17 mL/min/kg
- CL free (Rattus norvegicus): 115 mL/min/kg
- efflux ratio at 5 µM (MDR1 (P-gp, ABCB1)): 1.4
- pIC50 [4]: 7.54
- CLhep predicted at 1 µM [5]: 2 mL/min/kg
- clearance [6]: 56 mL/min/kg
- inhibition (INH) [9]: Not Active
- pIC50 (Cytochrome P450 1A2 [10]): 5.70

SMILES: CNc1nc(Nc2cnn([C@H]3CCN(C4COC4)C[C@@H]3F)c2Cl)ncc1C(F)(F)F (relative stereo)
- half-life [11]: 4 h
- Kp uu [1]: 0.51
- inhibition (INH) [12]: Not Active
- Drug metabolism (Liver microsome [13]): Not Active
- pIC50 (Mus musculus): 7.70
- inhibition (Mus musculus): Dose-dependent effect
- bioavailability [14]: 90%
- Drug metabolism (Liver microsome [15]): Not Active
- Activity (Cytochrome P450 2B6): Not Active
- pKi [2]: 8.70
- Activity (Cytochrome P450 3A4): Not Active
- clearance [16]: 7.8 mL/min/kg
- CLhep predicted at 1 µM [3]: 21 mL/min/kg
- CL free (Rattus norvegicus): 261 mL/min/kg
- fraction unbound at 4 h, 5 µM [17]: 0.179
- bioavailability [18]: 74%
- inhibition (TAK1/TAB1 (Homo sapiens)): 54%
- pIC50 [4]: 7.73
- CLhep predicted at 1 µM [5]: 1 mL/min/kg
- clearance [6]: 26 mL/min/kg
- Activity (Cytochrome P450 1A2 [19]): Not Active
- CL free (Cynomolgus monkey): 43 mL/min/kg
- inhibition (INH) [9]: Not Active

SMILES: CCNc1nc(Nc2cc(F)c(C(=O)N3CCOCC3)cc2OC)ncc1C(F)(F)F
- Ratio Ki (Homo sapiens): > 150
- solubility thermodynamic [20]: < 2 µg/mL
